One assay deals with young cotton seedlings. Nature of the assay: Ethylene-induced chlorophyll degradation in young cotton seedlings. It is filed as in vivo, cotton (Gossyium hirsutum barbadense L.). The note with it: for increase of chlorophyll content compared with the untreated control: ethylene 10 μL L^−1. How it is done: (1) Abscission-This is a very sensitive model system for studying the effects of plant hormones. Ethylene induces the process of abscission, while auxin delays it. In the laboratory the experimental system is based on plant organ explants, which include the abscission zone. Abscission is induced by exposure to ethylene and at the termination of the experiment the number of abscised organs, usually either leaf blades or petioles are counted and the fraction of abscission is calculated. In the case of fruit, the decrease in fruit retention force is analyzed. […] The plants or explants are then further exposed for 24 h to ethylene gas (5 to 20 μL L^-1). The plants or explants are then ventilated and incubated for the required time under controlled conditions. At the end of the experiment the percentage of abscission is determined. […] Plant material (whole plants, excised leaves or leaf discs) are pretreated. […] The plants or explants are then ventilated and incubated for the required time under controlled conditions. At the end of the experiment a dimethylsulfoxide (DMSO) extract of the plant tissue is prepared, and the chlorophyll content of the extract is determined by spectrophotometric analysis. The chlorophyll content is reported either on a fresh, dry weight basis, or on a surface area basis. (3) Epinasty-This is also one of the classical methods for studying ethylene effects in plants. The extent of ethylene-induced epinasty of leaves is determined by measuring the change of the angle between the petiole and the stem shoot or blade. After exposure of the intact plant to ethylene, the upright grown leaves bend downward. […] The plants are then ventilated and incubated for the required time under controlled conditions. The epinastic effect is expressed by measuring the degree values of the downward curvature between the blade and petiole (cotton, FIGS. 1-3) or between the blade and the stem (wheat, FIGS. 31 and 32). […] In this project the intact plants were grown in the greenhouse up to the spike […] stage I and II. […] Young Cotton Seedlings […] The content of chlorophyll in the leaf blades of the treated plants remained the same as in the untreated control (FIGS. 5 and 6).

For another assay, the system named is tobacco seedlings. Nature of the assay: Ethylene-induced leaf yellowing (senescence) of young tobacco seedlings. The format is in vivo, tobacco (Nicotiana tabacum var. 'Samsun'). The note with it: for ethylene-induced senescence (leaf yellowing): ethylene 10 μL L^−1. As for the experimental part:
(1) Abscission—This is a very sensitive model system for studying the effects of plant hormones. Ethylene induces the process of abscission, while auxin delays it. In the laboratory the experimental system is based on plant organ explants, which include the abscission zone. Abscission is induced by exposure to ethylene and at the termination of the experiment the number of abscised organs, usually either leaf blades or petioles are counted and the fraction of abscission is calculated. In the case of fruit, the decrease in fruit retention force is analyzed. In cotton, when WS-CPD (the ethylene-action antagonist herein disclosed) is tested, the whole plants or explants are pretreated by spraying with the antagonist, dissolved in a phosphate buffer solution (10-20 mM, pH 7.0) including 0.1% commercially available Kinetic™ as surfactant, and left to incubate for a predetermined time, usually between 6 and 24 h. The plants or explants are then further exposed for 24 h to ethylene gas (5 to 20 μL L^−1). The plants or explants are then ventilated and incubated for the required time under controlled conditions. At the end of the experiment the percentage of abscission is determined. (2) Chlorophyll degradation—This is a standard model for studying senescence. Plant material (whole plants, excised leaves or leaf discs) are pretreated. In cotton, tobacco and wheat, when WS-CPD is tested, the whole plants or explants are pretreated by spraying with the antagonist, dissolved in phosphate buffer solution (10-20 mM, pH 7.0) including 0.1% commercially available Kinetic™ surfactant, and left to incubate for a predetermined time, usually between 6 and 241. […] At the end of the experiment a dimethylsulfoxide (DMSO) extract of the plant tissue is prepared, and the chlorophyll content of the extract is determined by spectrophotometric analysis. […] The extent of ethylene-induced epinasty of leaves is determined by measuring the change of the angle between the petiole and the stem shoot or blade. […]

For assay [1], the system named is excised cotton leaves at different developmental stages. Nature of the assay: Ethylene-induced chlorophyll degradation in leaves of mature cotton plants. It is filed as in vivo, cotton (Gossyium hirsutum barbadense L.). As for the experimental part:
(1) Abscission—This is a very sensitive model system for studying the effects of plant hormones. Ethylene induces the process of abscission, while auxin delays it. In the laboratory the experimental system is based on plant organ explants, which include the abscission zone. Abscission is induced by exposure to ethylene and at the termination of the experiment the number of abscised organs, usually either leaf blades or petioles are counted and the fraction of abscission is calculated. In the case of fruit, the decrease in fruit retention force is analyzed. In cotton, when WS-CPD (the ethylene-action antagonist herein disclosed) is tested, the whole plants or explants are pretreated by spraying with the antagonist, dissolved in a phosphate buffer solution (10-20 mM, pH 7.0) including 0.1% commercially available Kinetic™ as surfactant, and left to incubate for a predetermined time, usually between 6 and 24 h. The plants or explants are then further exposed for 24 h to ethylene gas (5 to 20 μL L^−1). The plants or explants are then ventilated and incubated for the required time under controlled conditions. At the end of the experiment the percentage of abscission is determined. (2) Chlorophyll degradation—This is a standard model for studying senescence. Plant material (whole plants, excised leaves or leaf discs) are pretreated. In cotton, tobacco and wheat, when WS-CPD is tested, the whole plants or explants are pretreated by spraying with the antagonist, dissolved in phosphate buffer solution (10-20 mM, pH 7.0) including 0.1% commercially available Kinetic™ surfactant, and left to incubate for a predetermined time, usually between 6 and 241. The plants or explants are then further exposed for 24 h to ethylene gas (1 to 100 μL L^−1), or sprayed with Ethephon™ (wheat; 250 to 750 μL L^−1). The plants or explants are then ventilated and incubated for the required time under controlled conditions. At the end of the experiment a dimethylsulfoxide (DMSO) extract of the plant tissue is prepared, and the chlorophyll content of the extract is determined by spectrophotometric analysis. The chlorophyll content is reported either on a fresh, dry weight basis, or on a surface area basis. (3) Epinasty—This is also one of the classical methods for studying ethylene effects in plants. The extent of ethylene-induced epinasty of leaves is determined by measuring the change of the angle between the petiole and the stem shoot or blade. After exposure of the intact plant to ethylene, the upright grown leaves bend downward. The increase in the angle values (degrees) between petiole and the stem is used as a measure of the effect of the ethylene. […]

A further assay has as its system wheat plants. Nature of the assay: Wheat grain yield at harvest, greenhouse, sandy soil, natural conditions. It is filed as in vivo, wheat (Triticum turgidum var. 'Gdera').
A further assay relates to wheat seedlings. Nature of the assay: Third leaf growth of young wheat seedlings exposed to ethylene. It is filed as in vivo, wheat (Triticum turgidum var. 'Gdera').

In the case of `O=C([O-])CCC1=CC1.[Na+]` [WS-CPD, 3-cyclopropyl-1-enyl-propanoic sodium salt], the ethylene-induced chlorophyll degradation entry is given as “completely antagonized” with young cotton seedlings (WS-CPD 10 μg mL^−1 pretreatment, ethylene 10 μL L^−1 24 h); “less effective” with young cotton seedlings (higher concentrations of WS-CPD (up to 300 μg mL^−1)); “less effective” in assay [1] (mature leaves, WS-CPD 480 μg L^−1 (so in the source)); “completely antagonized” in assay [1] (young leaves, WS-CPD 10 μg mL^−1, ethylene 10 μL L^−1); “less effective” in assay [1] (young leaves, WS-CPD 270 μg mL^−1). Further, the “increase of chlorophyll content compared with the untreated control” value with young cotton seedlings (WS-CPD 30 μg L^−1 (so in the source)) was found to be 20%; with young cotton seedlings (WS-CPD 100 μg L^−1 (so in the source)), 28%. Moreover, the “ethylene-induced senescence (leaf yellowing)” value is recorded as “antagonized the ethylene-induced senescence only in mature leaves” in the assay on tobacco seedlings (WS-CPD 14 μg mL^−1) and “slightly effective” in the assay with tobacco seedlings (WS-CPD 127 μg mL^−1, young leaves). Further, in the assay on tobacco seedlings (WS-CPD 14 to 127 μg mL^−1, ethylene 20 μL L^−1), the leaf yellowing result was “very significantly inhibited”. Moreover, the “inhibition of ethylene-induced chlorophyll degradation” value in assay [1] (mature leaves, WS-CPD 90 and 240 μg mL^−1) turned out to be 95%. Also, in the assay with wheat plants (WS-CPD 120 μg mL^−1, two to four sprays at 8 to 10 days intervals), the “effect of repeating sprays after stage II on yield” value is “no advantage”. Also, the “grains weighting less than 35 mg/grain in the spikes of the treated plants” value with wheat plants (WS-CPD 120 μg mL^−1, untreated plants more than 30% below this weight) is “almost no grains”. The total yield increase result in the assay on wheat plants (one spray WS-CPD 120 μg mL^−1 at milky stage I, dry grain at harvest) is on record as “ca. 18%”. Also, the “reversal of the inhibitory effect of ethylene on third leaf growth” value in the assay on wheat seedlings (WS-CPD 40 μg mL^−1, 1.6 ethylene) is listed as 100%. Also, the “inhibitory effect of ethylene on third leaf growth” value in the assay on wheat seedlings (WS-CPD 4 and 40 μg mL^−1 spray at day 10, ethylene 1.6 to 40 μg L^−1 (so in the source) 24 h later for two days) is recorded as “effectively antagonized”.

The record behind these values is patent publication US9363996B2, “Compositions and method for blocking ethylene response in field crops using 3-(cy-clopropyl-l-enyl)-propanoic salt” (Yissum Research Development Company of the Hebrew …, priority 2009, dated 2016).
